From patent publication US10131653B2, “Heterocyclic compound” (TAKEDA PHARMACEUTICAL COMPANY LIMITED, priority 2015, dated 2018)
Structures can show the parent of a compound that is named as a salt. Where two headings read alike, the source gives them in different places.

Legend:
human OX1 receptor = target: T1, human OX1 receptor (Homo sapiens, UniProt O43613); assay: Measurement of orexin receptor antagonistic activity (calcium fluorescence, FLIPRtetra); type: cell-based; settings: CHO, read-out: Human Orexin1 receptor inhibition (at 10 μM)
T1 construct: expressed in transfected cells; host or cells: CHO cells
T1 sequence (O43613 1-425): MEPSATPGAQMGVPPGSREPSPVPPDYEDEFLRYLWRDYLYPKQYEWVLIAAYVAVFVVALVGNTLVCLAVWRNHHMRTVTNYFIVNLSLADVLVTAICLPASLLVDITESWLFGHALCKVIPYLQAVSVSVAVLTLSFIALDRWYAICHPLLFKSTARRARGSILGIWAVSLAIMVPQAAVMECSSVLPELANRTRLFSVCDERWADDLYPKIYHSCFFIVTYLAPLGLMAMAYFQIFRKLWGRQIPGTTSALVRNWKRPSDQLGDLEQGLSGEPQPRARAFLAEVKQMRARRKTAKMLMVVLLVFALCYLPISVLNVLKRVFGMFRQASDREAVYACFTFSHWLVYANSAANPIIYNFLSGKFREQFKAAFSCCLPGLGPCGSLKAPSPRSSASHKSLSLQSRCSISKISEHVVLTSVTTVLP
Summary of the method: (§1)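 CHO cells expressing human OX1 or OX2 receptor, cultured one day. Compound in HBSS/20 mM HEPES/0.1% BSA added, then orexin-A at 1 nM final (OX1) or 0.3 nM final (OX2); calcium fluorescence by FLIPRtetra every 1 s for 2 min.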

human OX2 receptor = target: T2, human OX2 receptor (Homo sapiens, UniProt O43614); assay: as above; type: cell-based; settings: CHO, read-out: Human Orexin2 receptor inhibition (at 10 μM)
T2 construct: expressed in transfected cells; host or cells: CHO cells
T2 sequence (O43614 1-444): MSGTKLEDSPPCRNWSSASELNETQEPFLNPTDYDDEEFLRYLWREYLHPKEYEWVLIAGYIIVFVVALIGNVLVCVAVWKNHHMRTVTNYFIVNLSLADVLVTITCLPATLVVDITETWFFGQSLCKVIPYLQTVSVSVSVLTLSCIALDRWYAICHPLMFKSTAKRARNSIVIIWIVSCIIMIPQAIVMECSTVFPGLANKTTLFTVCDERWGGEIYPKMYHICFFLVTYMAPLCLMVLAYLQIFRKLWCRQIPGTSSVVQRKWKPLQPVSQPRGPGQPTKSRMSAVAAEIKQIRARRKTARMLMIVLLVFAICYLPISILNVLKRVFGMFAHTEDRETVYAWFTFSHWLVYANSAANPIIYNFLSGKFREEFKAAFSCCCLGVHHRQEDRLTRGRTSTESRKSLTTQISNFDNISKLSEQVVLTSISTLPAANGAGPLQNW
Summary of the method: as §1

[1] = 10 μM test compound, CHO cells expressing human OX1 receptor, OX-A 1 nM
[2] = 10 μM test compound, CHO cells expressing human OX2 receptor, OX-A 0.3 nM

inhibition at 10 µM (human OX1 receptor; [1]) [%] | inhibition at 10 µM (human OX2 receptor; [2]) [%] | SMILES | inhibition at 10 µM (human OX1 receptor) [%] | inhibition at 10 µM (human OX2 receptor) [%]
77 | 100 | COc1nc(N2CCN(C(=O)c3cc(C)ccc3-n3nccn3)[C@H](C)CO2)ncc1F [Example 117, ((6R)-2-(5-fluoro-4-methoxypyrimidin-2-yl)-6-methyl-1,2,5-oxadiazepan-5-yl)(5-methyl-2-(2H-1,2,3-triazol-2-yl)phenyl)methanone hydrochloride] |  | 
48 | 92 | Cc1ccc(-n2nccn2)c(C(=O)N2CCN(c3ccc(F)cn3)OC[C@H]2C)c1 [Example 119, ((6R)-2-(5-fluoropyridin-2-yl)-6-methyl-1,2,5-oxadiazepan-5-yl)(5-methyl-2-(2H-1,2,3-triazol-2-yl)phenyl)methanone] |  | 
83 | 100 | COc1cccc(N2CCN(C(=O)c3cc(C)ccc3-n3nccn3)[C@H](C)CO2)c1 [Example 120, ((6R)-2-(3-methoxyphenyl)-6-methyl-1,2,5-oxadiazepan-5-yl) (5-methyl-2-(2H-1,2,3-triazol-2-yl)phenyl)methanone] |  | 
92 | 94 | Cc1ccc(-n2nccn2)c(C(=O)N2CCN(c3ccc(Cl)cn3)OC[C@H]2C)c1 [Example 121, ((6R)-2-(5-chloropyridin-2-yl)-6-methyl-1,2,5-oxadiazepan-5-yl) (5-methyl-2-(2H-1,2,3-triazol-2-yl)phenyl)methanone] |  | 
11 | 69 | Cc1ccc(-n2nccn2)c(C(=O)N2CCN(c3ncccc3Cl)OC[C@H]2C)c1 [Example 122, ((6R)-2-(3-chloropyridin-2-yl)-6-methyl-1,2,5-oxadiazepan-5-yl) (5-methyl-2-(2H-1,2,3-triazol-2-yl)phenyl)methanone] |  | 
23 | 74 | COc1cccnc1N1CCN(C(=O)c2cc(C)ccc2-n2nccn2)[C@H](C)CO1 [Example 123, ((6R)-2-(3-methoxypyridin-2-yl)-6-methyl-1,2,5-oxadiazepan-5-yl) (5-methyl-2-(2H-1,2,3-triazol-2-yl)phenyl)methanone] |  | 
85 | 101 | Cc1ccc(-n2nccn2)c(C(=O)N2CCN(c3cccc(C)n3)OC[C@H]2C)c1 [Example 124, ((6R)-6-methyl-2-(6-methylpyridin-2-yl)-1,2,5-oxadiazepan-5-yl) (5-methyl-2-(2H-1,2,3-triazol-2-yl)phenyl)methanone] |  | 
68 | 98 | Cc1ccnc(N2CCN(C(=O)c3cc(C)ccc3-n3nccn3)[C@H](C)CO2)c1 [Example 125, ((6R)-6-methyl-2-(4-methylpyridin-2-yl)-1,2,5-oxadiazepan-5-yl) (5-methyl-2-(2H-1,2,3-triazol-2-yl)phenyl)methanone] |  | 
96 | 97 | COc1cccc(N2CCN(C(=O)c3cc(C)ccc3-n3nccn3)[C@H](C)CO2)n1 [Example 126, ((6R)-2-(6-methoxypyridin-2-yl)-6-methyl-1,2,5-oxadiazepan-5-yl) (5-methyl-2-(2H-1,2,3-triazol-2-yl)phenyl)methanone] |  | 
66 | 86 | Cc1ccc(-n2nccn2)c(C(=O)N2CCN(c3cc(C(F)(F)F)ccn3)OC[C@H]2C)c1 [Example 127, (5-methyl-2-(2H-1,2,3-triazol-2-yl)phenyl) ((6R)-6-methyl-2-(4-(trifluoromethyl)pyridin-2-yl)-1,2,5-oxadiazepan-5-yl)methanone] |  | 
99 | 96 | Cc1ccc(-n2nccn2)c(C(=O)N2CCN(c3cccc(C(F)(F)F)n3)OC[C@H]2C)c1 [Example 128, (5-methyl-2-(2H-1,2,3-triazol-2-yl)phenyl) ((6R)-6-methyl-2-(6-(trifluoromethyl)pyridin-2-yl)-1,2,5-oxadiazepan-5-yl)methanone] |  | 
38 | 86 | Cc1ccc(-n2nccn2)c(C(=O)N2CCN(c3nc(C)cnc3C)OC[C@H]2C)c1 [Example 129, ((6R)-2-(3,6-dimethylpyrazin-2-yl)-6-methyl-1,2,5-oxadiazepan-5-yl) (5-methyl-2-(2H-1,2,3-triazol-2-yl)phenyl)methanone] |  | 
10 | 67 | COc1cncc(N2CCN(C(=O)c3cc(C)ccc3-n3nccn3)[C@H](C)CO2)c1 [Example 132, ((6R)-2-(5-methoxypyridin-3-yl)-6-methyl-1,2,5-oxadiazepan-5-yl) (5-methyl-2-(2H-1,2,3-triazol-2-yl)phenyl)methanone] |  | 

The remaining lines, values behind:

SMILES | inhibition at 10 µM (human OX1 receptor; [1]) [%] | inhibition at 10 µM (human OX2 receptor; [2]) [%] | inhibition at 10 µM (human OX1 receptor) [%] | inhibition at 10 µM (human OX2 receptor) [%]
CCC1CN(C(=O)c2ccccc2-n2nccn2)CCN(c2cc(C)nc(C)n2)O1 (stereo not drawn) [Example 112, (2-(2,6-dimethylpyrimidin-4-yl)-7-ethyl-1,2,5-oxadiazepan-5-yl)(2-(2H-1,2,3-triazol-2-yl)phenyl)methanone] | 90 | 101 |  | 
COCC1CN(C(=O)c2ccccc2-n2nccn2)CCN(c2cc(C)nc(C)n2)O1 (stereo not drawn) [Example 113, (2-(2,6-dimethylpyrimidin-4-yl)-7-(methoxymethyl)-1,2,5-oxadiazepan-5-yl)(2-(2H-1,2,3-triazol-2-yl)phenyl)methanone] | 16 | 102 |  | 
Cc1ccc(-n2nccn2)c(C(=O)N2CCN(c3nc(C)cc(C)n3)OC[C@H]2C)c1 [Example 114, ((6R)-2-(4,6-dimethylpyrimidin-2-yl)-6-methyl-1,2,5-oxadiazepan-5-yl) (5-methyl-2-(2H-1,2,3-triazol-2-yl)phenyl)methanone] | 69 | 96 |  | 
Cc1ccc(-n2nccn2)c(C(=O)N2CCN(c3nc(C)cc(C#N)n3)OC[C@H]2C)c1 [Example 115, 6-methyl-2-((6R)-6-methyl-5-(5-methyl-2-(2H-1,2,3-triazol-2-yl)benzoyl)-1,2,5-oxadiazepan-2-yl)pyrimidine-4-carbonitrile] | 103 | 100 |  | 
Cc1ccc(-n2nccn2)c(C(=O)N2CCN(c3ncc4sccc4n3)OC[C@H]2C)c1 [Example 116, ((6R)-6-methyl-2-(thieno[3,2-d]pyrimidin-2-yl)-1,2,5-oxadiazepan-5-yl) (5-methyl-2-(2H-1,2,3-triazol-2-yl)phenyl)methanone] | 101 | 100 |  | 
Cc1ccc(-n2nccn2)c(C(=O)N2CCN(c3nc4cc(Cl)ccc4o3)OC[C@H]2C)c1 [Example 118, ((6R)-2-(5-chloro-1,3-benzoxazol-2-yl)-6-methyl-1,2,5-oxadiazepan-5-yl)(5-methyl-2-(2H-1,2,3-triazol-2-yl)phenyl)methanone] | 101 | 102 |  | 
Cc1ccc(-n2nccn2)c(C(=O)N2CCN(c3cn4ccccc4n3)OC[C@H]2C)c1 [Example 130, ((6R)-2-(imidazo[1,2-a]pyridin-2-yl)-6-methyl-1,2,5-oxadiazepan-5-yl) (5-methyl-2-(2H-1,2,3-triazol-2-yl)phenyl)methanone] |  |  | 62 | 56
Cc1cncc(N2CCN(C(=O)c3cc(C)ccc3-n3nccn3)[C@H](C)CO2)c1 [Example 131, ((6R)-6-methyl-2-(5-methylpyridin-3-yl)-1,2,5-oxadiazepan-5-yl) (5-methyl-2-(2H-1,2,3-triazol-2-yl)phenyl)methanone] |  |  | -7 | 38
Cc1ccc(-n2nccn2)c(C(=O)N2CCN(c3cncc(Cl)c3)OC[C@H]2C)c1 [Example 133, ((6R)-2-(5-chloropyridin-3-yl)-6-methyl-1,2,5-oxadiazepan-5-yl) (5-methyl-2-(2H-1,2,3-triazol-2-yl)phenyl)methanone] |  |  | 11 | 70
Cc1ccc(-n2nccn2)c(C(=O)N2CCN(c3ccc(F)c(Cl)c3)OC[C@H]2C)c1 [Example 134, ((6R)-2-(3-chloro-4-fluorophenyl)-6-methyl-1,2,5-oxadiazepan-5-yl) (5-methyl-2-(2H-1,2,3-triazol-2-yl)phenyl)methanone] |  |  | 92 | 80
Cc1ccc(-n2nccn2)c(C(=O)N2CCN(c3ccc(F)cc3)OC[C@H]2C)c1 [Example 135, ((6R)-2-(4-fluorophenyl)-6-methyl-1,2,5-oxadiazepan-5-yl) (5-methyl-2-(2H-1,2,3-triazol-2-yl)phenyl)methanone] |  |  | 15 | 88
